Patent US20200071351A1, “TACCALONOLIDE MICROTUBULE STABILIZERS” (THE BOARD OF REGENTS OF THE UNIVERSITY OF TEXAS SYSTEM, priority 2016, published 2020)
Read-outs that look alike come from different tables or passages of the source.

Assays:
[1] = system: SK-OV-3 ovarian cancer cell line; assay: Inhibition of cellular proliferation, SRB assay, SK-OV-3 cells; assay type: cell-based; details: average of 3-4 independent experiments
Experimental: (§1) The HeLa cervical cancer cell line, the SK-OV-3 ovarian cancer cell line and the PC-3 prostate cancer cell line were obtained from American Type Tissue Culture Collection (Manassas, Va.) and grown in Basal Media Eagle (BME) or RPMI 1640 medium (Invitrogen; Carlsbad, Calif.) supplemented with 10% fetal bovine serum (Hyclone; Logan, Utah) and 50 μg/ml gentamicin sulfate (Invitrogen). The P-glycoprotein expressing SK-OV-3/MDR-1-6/6 cell line and the βIII-tubulin expressing WTβIII cell line have been described previously (Risinger et al., 2008).
(§2) The antiproliferative and cytotoxic effects of the taccalonolides were evaluated using the SRB assay (Skehan et al., 1990, Boyd and Paull, 1995) as previously described (Tinley et al., 2003). The concentration of drug that causes 50% inhibition of cellular proliferation (IC50) was calculated from the linear portion of the log dose response curve. The ability of the compounds to initiate cytotoxicity was also determined. […] The determination of IC50 values was performed on taccalonolide material after NMR analysis and subsequent lyophilization. Ethanol or DMSO was used as the vehicle for all cellular studies.
(§3) The ability of taccalonolides AF and AJ to inhibit the proliferation of both drug sensitive cancer cells, including ovarian cancer cells (SK-OV-3), cervical cancer cells (HeLa) and prostate cancer cells (PC-3) and drug resistant cells, including the P-glycoprotein expressing SK-OV-3 line (SK-OV-3/MDR-1-6/6) and the βIII-tubulin expressing HeLa cell line (WTβIII) was determined.
(§4) Referring to Table 3, the effect of the taccalonolides in drug resistant and sensitive cells is shown. IC50 values for inhibition of cellular proliferation for taccalonolides AF and AJ were determined in drug sensitive and drug resistant cell lines. The HeLa cell pair evaluated the effect of βIII tubulin expression on cell sensitivity and the ability of compounds to overcome drug resistance mediated by βIII tubulin expression. […] IC50 values were calculated from an average of 3-4 independent experiments, each performed in triplicate.

[2] = system: βIII-tubulin expressing HeLa cell line (WTβIII); assay: Inhibition of cellular proliferation, SRB assay, βIII-tubulin expressing WTβIII cell line; assay type: cell-based; details: for relative resistance (Rr): IC50 WTβIII divided by IC50 HeLa; for IC50: WTβIII, average of 3-4 independent experiments
Experimental: as §1, §2, §3
(§5) Referring to Table 3, the effect of the taccalonolides in drug resistant and sensitive cells is shown. IC50 values for inhibition of cellular proliferation for taccalonolides AF and AJ were determined in drug sensitive and drug resistant cell lines. The HeLa cell pair evaluated the effect of βIII tubulin expression on cell sensitivity and the ability of compounds to overcome drug resistance mediated by βIII tubulin expression. The SK-OV-3 cell line pair was used to evaluate the effects of the expression of P-glycoprotein (Pgp) on cell sensitivity and the ability of compounds to overcome Pgp-mediated drug resistence. The effects of the taccalonolides on the drug senstive prostate cancer cell line PC-3 are also presented. IC50 values were calculated from an average of 3-4 independent experiments, each performed in triplicate.

[3] = system: PC-3 prostate cancer cell line; assay: Inhibition of cellular proliferation, SRB assay, PC-3 cells; assay type: cell-based; details: average of 3-4 independent experiments
Experimental: as §1, §2, §3, §4

[4] = system: human mammary epithelial cells; assay: Cytotoxicity to normal cells; assay type: cell-based; details: concentrations 5 to 100-fold the IC50 values in the HeLa cancer cell line
HeLa cells [5] = assay: Mitotic spindle structures, indirect immunofluorescence; assay type: cell-based; details: 18 h, 125 nM AF, 200 nM AI, 35 nM AJ
Experimental: Cellular microtubules in interphase and mitotic HeLa cells were visualized using indirect immunofluorescence techniques as previously described (Tinley et al., 2003). […] Representative images of interphase and mitotic cells were acquired using a Nikon Eclipse 80i fluorescence microscope and compiled using NIS Elements AR 3.0 software.
The effects of the taccalonolides on mitotic spindle structures were evaluated to test whether they caused mitotic spindle defects leading to cell cycle arrest. β-tubulin and DNA were visualized in HeLa cells by indirect immunofluorescence and DAPI staining, respectively. […] These mitotic cells contained multiple abnormal mitotic spindles, which is another common effect of microtubule stabilizing agents (FIGS. 4A-D).
The microtubule structures in mitotic cells were visualized by indirect immunofluorescence using a β-tubulin antibody.

[6] = system: purified porcine brain tubulin; assay: Tubulin polymerization followed turbidimetrically; assay type: biochemical; details: 10 μM compound, 2 mg/ml tubulin, 10% glycerol, 1 mM GTP, 37° C., OD340
Experimental: The ability of these new potent taccalonolides to interact directly with tubulin was assessed by incubating purified porcine brain tubulin at a concentration of 2 mg/ml in the presence of 10% glycerol and 1 mM GTP, which allows for a baseline level of tubulin polymerization that can be followed turbidimetrically (FIG. 5).
Tubulin polymerization was monitored by turbidity measurement at OD340.

HeLa cells [7] = assay: Inhibition of cellular proliferation, SRB assay, HeLa cells; assay type: cell-based; details: for increase in potency as compared to the parent taccalonolide on C22-C23 epoxidation: HeLa IC50 ratio, parent/epoxide
Experimental: The ability of the compounds to initiate cytotoxicity was also determined. […] The determination of IC50 values was performed on taccalonolide material after NMR analysis and subsequent lyophilization. Ethanol or DMSO was used as the vehicle for all cellular studies.
The antiproliferative potencies of the taccalonolides were evaluated in HeLa cells using the SRB assay.

[8] = system: SK-OV-3/MDR-1-6/6 cell line; assay: Inhibition of cellular proliferation, SRB assay, P-glycoprotein expressing SK-OV-3/MDR-1-6/6 cells; assay type: cell-based; details: for relative resistance (Rr): IC50 SK-OV-3/MDR-1-6/6 divided by IC50 SK-OV-3; for IC50: SK-OV-3/MDR-1-6/6, average of 3-4 independent experiments
Experimental: as §1, §2, §3, §5

HeLa cells [9] = assay: Cell cycle distribution by flow cytometry; details: 18 h, 125 nM AF, 200 nM AI, 35 nM AJ
MDA-MB-231-BR-Luc2 cells = assay: Growth of intracranially injected breast cancer cells in the brain, luciferase imaging; assay type: in vivo, female athymic nude mice; details: for brain tumor photon counts, day 0: day 0, 10 second exposure; for brain tumor photon counts, day 0 / brain tumor photon counts, day 7: one mouse each, AF 2.2 mg/kg ip, paclitaxel 20 mg/kg ip on days 0 and 4; for brain tumor photon counts, day 7: day 7, 10 second exposure
Experimental: Referring to FIG. 15, A brain-seeking clone of the MDA-MB-231 triple negative breast cancer cell line stably transfected with luciferase was injected intracranially (1×10^6 MDA-MB-231-BR-Luc2 cells in 5 μL PBS) into female athymic nude mice. […] On day 7, mice were again imaged as described above (FIGS. 15C, D). The brain tumor in the mouse treated with taccalonolide AF measured 2.2×10^3 photon counts with an exposure time of 10 seconds on day 0 but was undetectable with the same 10 second exposure time on day 7. A longer exposure time of 60 seconds gave a photon count of 2.4×10^3.

[10] = system: MDA-MB-231 human breast tumors; assay: Antitumor activity in MDA-MB-231 breast tumor xenograft; assay type: in vivo, Nude mice; details: 2.5 mg/kg on days 0 and 4 or 2.0 mg/kg on days 0, 3, and 7
Experimental: The ability of taccalonolide AF to inhibit the growth of the aggressive human breast tumor MDA-MB-231 in a murine host was determined. Taccalonolide AF was administered at a dose of 2.5 mg/kg on days 0 and 4 or 2.0 mg/kg on days 0, 3, and 7.
Referring to FIG. 6, Nude mice bearing bilateral MDA-MB-231 human breast tumors were treated with 2.0 mg/kg of AF on days 0, 3 and 7, 2.5 mg/kg AF on days 0 and 4, or 10 mg/kg PTX on days 0, 2, 4 and 7 as a positive control. Tumor volume was measured using calipers and mass calculated with the formula: Tumor mass (mg)=0.5×[…]. Median tumor mass with standard error of the mean (n=10) are graphically represented. *p<0.05, **p<0.01.

[11] = HeLa cells, SRB assay, read-out: IC50
[12] = HeLa, average of 3-4 independent experiments, read-out: IC50 for inhibition of cellular proliferation, HeLa

Row | Compound | IC50 [1] | relative resistance (Rr) [2] | IC50 [2] | IC50 [3] | cytotoxicity of normal cells [4] | effect on mitotic spindle structures (HeLa cells [5]) | rate and extent of tubulin polymerization [6] | increase in potency as compared to the parent taccalonolide on C22-C23 epoxidation (HeLa cells [7]) | IC50 (HeLa cells [7]; [11]) | IC50 (HeLa cells [7]; [12]) | relative resistance (Rr) [8] | IC50 [8] | brain tumor photon counts, day 0 (MDA-MB-231-BR-Luc2 cells) | brain tumor photon counts, day 7 (MDA-MB-231-BR-Luc2 cells) | further results
1 | CC(=O)O[C@H]1[C@H]2[C@H]([C@@H]3[C@@H](O)[C@@H]4[C@H]([C@H](C)[C@@H]5O[C@@]56OC(=O)[C@@](C)(O)[C@]46C)[C@@]3(C)[C@H]1OC(C)=O)[C@@H](O)C(=O)[C@H]1C[C@@H]3O[C@@H]3[C@H](OC(C)=O)[C@]21C [Taccalonolide AJ] | 16.3 ± 0.8 nM | (1.7) | 11.1 ± 0.6 nM | 25.1 ± 4 nM | No cytotoxicity | mitotic arrest of cells with multiple abnormal mitotic spindles | dramatically increased | 743 fold | 4.3 nM | 6.6 ± 0.3 nM | (7.8) | 126 ± 12.8 nM | – | – | –
2 | CC(=O)O[C@H]1C(=O)[C@@]2(C)[C@H]([C@H](OC(=O)c3ccccc3)[C@]3(O)C[C@H](OC(=O)[C@H](O)[C@@H](NC(=O)c4ccccc4)c4ccccc4)C(C)=C1C3(C)C)[C@]1(OC(C)=O)CO[C@@H]1C[C@@H]2O [Paclitaxel, paclitaxel, reference compound] | – | – | – | – | – | – | – | – | – | – | – | – | 1.8×10^4 photon counts | 9.0×10^4 photon counts | IC50 ([1]; Homo sapiens): 3.8 ± 0.2 nM; IC50 ([2]; Homo sapiens, HeLa): 17.8 ± 1.2 nM; effect on mitotic progression / cell cycle distribution (HeLa cells [9]): mitotic arrest; IC50 ([3]; Homo sapiens): 3.7 ± 0.2 nM; IC50 ([8]; Homo sapiens): 785 ± 88 nM
3 | CC(=O)O[C@@H]1[C@H]2[C@H]3[C@H]([C@H](OC(C)=O)[C@H](OC(C)=O)[C@]2(C)[C@H]2[C@H](C)[C@H]4O[C@]45OC(=O)[C@@](C)(O)[C@]5(C)[C@@H]12)[C@]1(C)[C@H](C[C@@H]2O[C@@H]2[C@@H]1OC(C)=O)C(=O)[C@@H]3O [Taccalonolide AF] | 79.4 ± 3.5 nM | (1.3) | 30.6 ± 3.3 nM | 128 ± 16 nM | No cytotoxicity | mitotic arrest of cells with multiple abnormal mitotic spindles | dramatically increased | 234 fold | 23 nM | 23.6 ± 2.1 nM | (4.6) | 366 ± 30.6 nM | 2.2×10^3 photon counts | undetectable | antitumor activity compared to vehicle treated controls [10]: sufficient to observe antitumor activity; antitumor activity compared to positive control 10 mg/kg paclitaxel ([10]; paclitaxel days 0, 2, 4 and 7): equivalent or greater than the positive control; brain tumor photon count, day 7, longer exposure (MDA-MB-231-BR-Luc2 cells; day 7, 60 seconds exposure, AF 2.2 mg/kg ip on days 0 and 4): 2.4×10^3 photon count
